In patent US11160887B2, “Compositions for use in diagnosing and treating melanoma, including metastatic melanoma and methods related to same” (UNM RAINFOREST INNOVATIONS, priority 2008, dated 2021):

Key:
[1] = tested on: B16/F10 pulmonary melanoma metastases; type: in vivo, mouse
Description: Metastatic Melanoma Imaging: A pulmonary metastatic melanoma-bearing mouse was used for [^18F]FDG PET imaging 16 days after the cell injection and used for ^111In-DOTA-GlyGlu-CycMSH SPECT/CT imaging on next day (a time interval of 26 h) to compare the difference in detection efficiency between [^18F]FDG and ^111In-DOTA-GlyGlu-CycMSH. The mouse was injected with 35.15 MBq of commercial [^18F]FDG (Biotech, N. Mex.) via the tail vein. At 1 h post-injection, the mouse was anesthetized with 1.5% isoflurane and placed in the prone position near the center of the field of view of small animal PET (LabPET™) (Gamma Medica-Ideas, Sherbrooke, Quebec). A 30-min static scan was acquired, and the image was reconstructed by maximum likelihood estimation method (MLEM). The mouse was returned to the cage for recovery after the ^18F-FDG PET imaging study was completed. The same mouse was injected with 24.05 MBq of ^111In-DOTA-GlyGlu-CycMSH via the tail vein 24 h after the ^18F-FDG PET imaging study. The mouse was anesthetized with 1.5% isoflurane for small animal SPECT/CT (Nano-SPECT/CT®, Bioscan) imaging 2 h post-injection. The 6-min CT imaging was immediately followed by the focused SPECT imaging of lung. The SPECT scans of 24 projections were acquired and total acquisition time was 45 min. After the focused lung imaging, the mouse was sacrificed with CO2 inhalation for whole-body SPECT/CT imaging. The 9-min CT imaging was immediately followed by the SPECT imaging of whole-body. Reconstructed data from SPECT and CT were visualized and co-registered using InVivoScope (Bioscan, Washington D.C.). Necropsy analysis of the mouse was performed to confirm the pulmonary metastatic melanoma lesions after the SPECT/CT imaging studies were completed. To monitor the development of pulmonary melanoma metstases with ^111In-DOTA-GlyGlu-CycMSH, a pulmonary metastatic melanoma-bearing mouse was injected with 10.36 MBq of ^111In-DOTA-GlyGlu-CycMSH through the tail vein for small animal SPECT/CT imaging 20 days after the cell injection. […]

[2] = tested on: melanoma metastases smaller than 5 mm; settings: literature (5); cited from earlier work

accumulation of activity in normal organs in whole-body image ([1]; mouse, in vivo): much higher normal organ accumulation
Substance: 2-[^18F]fluoro-2-deoxy-D-glucose [[^18F]FDG]
detection of pulmonary metastatic melanoma lesions by imaging ([1]; SPECT/CT 2 h post-injection (111In peptide) or PET 1 h post-injection ([18F]FDG), same mouse, 16-17 days post the cell injection): failed in identifying the pulmonary melanoma metastases | melanoma metastases smaller than 5 mm detected by PET imaging [2]: 23%
